# What was measured:
# Experiment in all cases: Test F preemergence test
# Conditions in all cases: scale 0 to 100
# johnsongrass = format: in vivo, Sorghum halepense
# Source text: (§1) Seeds of plant species selected from bermudagrass (Cynodon dactylon), Surinam grass (Brachiaria decumbens), large crabgrass (Digitaria sanguinalis), green foxtail (Setaria viridis), goosegrass (Eleusine indica), johnsongrass (Sorghum halepense), kochia (Kochia scoparia), pitted morningglory (Ipomoea lacunosa), purple nutsedge (Cyperus rotundus), common ragweed (Ambrosia elation), mustard (Brassica nigra), guineagrass (Panicum maximum), […] (Paspalum dilatatum), barnyardgrass (Echinochloa crus-galli), southern sandbur (Cenchrus echinatus), common sowthistle (Sonchus oleraceous), prickly […] spinosa), Italian ryegrass (Lolium multiflorum), common purslane (Portulaca oleracea), broadleaf signalgrass (Brachiaria platyphylla), common groundsel (Senecio vulgaris), common chickweed (Stellaria media), Virginia dayflower (Commelina virginica), annual bluegrass (Poa annua), naked crabgrass (Digitaria nuda), […] cochinchinensis), quackgrass (Elytrigia repens), Canada horseweed (Conyza canadensis), field bindweed (Convolvulus arvensis), […] (Bidens bipinnata), common mallow (Malva sylvestris), Russian thistle (Salsola kali), and sugarcane (Saccharum officinarum) were planted and treated preemergence with test chemicals formulated in a non-phytotoxic solvent mixture which included a surfactant. At a different time, sugarcane was treated with postemergence applications of some of the test chemicals formulated in the same manner. Plants were approximately 3- to 4-leaf stage for the postemergence treatments. Treated plants and controls were maintained in a greenhouse for 14 to 21 days, after which time all species were compared to controls and visually evaluated. […] A dash (-) response means no test result.
# naked crabgrass = format: in vivo, Digitaria nuda
# Source text: as §1
# kochia = format: in vivo, Kochia scoparia
# Source text: as §1
# bermudagrass = format: in vivo, Cynodon dactylon
# Source text: as §1
# pitted morningglory = format: in vivo, Ipomoea lacunosa
# Source text: as §1
# Italian ryegrass = format: in vivo, Lolium multiflorum
# Source text: as §1
# southern sandbur = format: in vivo, Cenchrus echinatus
# Source text: as §1
# purple nutsedge = format: in vivo, Cyperus rotundus
# Source text: as §1
# common purslane = format: in vivo, Portulaca oleracea
# Source text: as §1
# Surinam grass = format: in vivo, Brachiaria decumbens
# Source text: as §1
# quackgrass = format: in vivo, Elytrigia repens
# Source text: as §1
# guineagrass = format: in vivo, Panicum maximum
# Source text: as §1
# goosegrass = format: in vivo, Eleusine indica
# Source text: as §1
# large crabgrass = format: in vivo, Digitaria sanguinalis
# Source text: as §1
# prickly sida = format: in vivo, Sida spinosa
# Source text: as §1
# common ragweed = format: in vivo, Ambrosia elation
# Source text: as §1
# common groundsel = format: in vivo, Senecio vulgaris
# Source text: as §1
smiles,measurement,setting,value
Cn1nc(C(F)(F)F)c(CS(=O)(=O)c2cccc[n+]2[O-])c1OCC(F)(F)F [Compound 29],Johnsongrass plant response rating,"johnsongrass; 62 g ai/ha, Preemergence",100
same,Johnsongrass plant response rating,"johnsongrass; 125 g ai/ha, preemergence",100
same,"Plant response rating, Johnsongrass","johnsongrass; Preemergence, 16 g ai/ha",70
same,"Plant response rating, Johnsongrass","johnsongrass; Preemergence, 31 g ai/ha",100
same,"Crabgrass, Naked plant response rating","naked crabgrass; 62 g ai/ha, Preemergence",100
same,"Crabgrass, Naked plant response rating","naked crabgrass; 125 g ai/ha, preemergence",100
same,"Plant response rating, Crabgrass, Naked","naked crabgrass; Preemergence, 31 g ai/ha",80
same,Kochia plant response rating,"kochia; 62 g ai/ha, Preemergence",100
same,Kochia plant response rating,"kochia; 125 g ai/ha, preemergence",100
same,"Plant response rating, Kochia","kochia; Preemergence, 16 g ai/ha",0
same,"Plant response rating, Kochia","kochia; Preemergence, 31 g ai/ha",30
same,Bermudagrass plant response rating,"bermudagrass; 125 g ai/ha, preemergence",100
same,"Plant response rating, Bermudagrass","bermudagrass; Preemergence, 16 g ai/ha",40
same,"Plant response rating, Bermudagrass","bermudagrass; Preemergence, 31 g ai/ha",90
same,Morningglory plant response rating,"pitted morningglory; 62 g ai/ha, Preemergence",60
same,Morningglory plant response rating,"pitted morningglory; 125 g ai/ha, preemergence",80
same,"Plant response rating, Morningglory","pitted morningglory; Preemergence, 16 g ai/ha",0
same,"Plant response rating, Morningglory","pitted morningglory; Preemergence, 31 g ai/ha",0
same,"Ryegrass, Italian plant response rating","Italian ryegrass; 62 g ai/ha, Preemergence",100
same,"Ryegrass, Italian plant response rating","Italian ryegrass; 125 g ai/ha, preemergence",100
same,"Plant response rating, Ryegrass, Italian","Italian ryegrass; Preemergence, 16 g ai/ha",65
same,"Plant response rating, Ryegrass, Italian","Italian ryegrass; Preemergence, 31 g ai/ha",100
same,Sandbur plant response rating,"southern sandbur; 62 g ai/ha, Preemergence",100
same,Sandbur plant response rating,"southern sandbur; 125 g ai/ha, preemergence",100
same,"Plant response rating, Sandbur","southern sandbur; Preemergence, 31 g ai/ha",100
same,Purple Nutsedge plant response rating,"purple nutsedge; 125 g ai/ha, preemergence",75
same,"Plant response rating, Purple Nutsedge","purple nutsedge; Preemergence, 16 g ai/ha",20
same,"Plant response rating, Purple Nutsedge","purple nutsedge; Preemergence, 31 g ai/ha",35
same,Purslane plant response rating,"common purslane; 62 g ai/ha, Preemergence",30
same,Purslane plant response rating,"common purslane; 125 g ai/ha, preemergence",30
same,"Plant response rating, Purslane","common purslane; Preemergence, 16 g ai/ha",0
same,"Plant response rating, Purslane","common purslane; Preemergence, 31 g ai/ha",0
same,Surinam Grass plant response rating,"Surinam grass; 62 g ai/ha, Preemergence",100
same,Surinam Grass plant response rating,"Surinam grass; 125 g ai/ha, preemergence",100
same,"Plant response rating, Surinam Grass","Surinam grass; Preemergence, 31 g ai/ha",75
same,Quackgrass plant response rating,"quackgrass; 62 g ai/ha, Preemergence",95
same,Quackgrass plant response rating,"quackgrass; 125 g ai/ha, preemergence",95
same,"Plant response rating, Quackgrass","quackgrass; Preemergence, 16 g ai/ha",0
same,"Plant response rating, Quackgrass","quackgrass; Preemergence, 31 g ai/ha",30
same,Guineagrass plant response rating,"guineagrass; 62 g ai/ha, Preemergence",100
same,Guineagrass plant response rating,"guineagrass; 125 g ai/ha, preemergence",100
same,"Plant response rating, Guineagrass","guineagrass; Preemergence, 16 g ai/ha",90
same,"Plant response rating, Guineagrass","guineagrass; Preemergence, 31 g ai/ha",100
same,Goosegrass plant response rating,"goosegrass; 62 g ai/ha, Preemergence",100
same,Goosegrass plant response rating,"goosegrass; 125 g ai/ha, preemergence",100
same,"Plant response rating, Goosegrass","goosegrass; Preemergence, 16 g ai/ha",65
same,"Plant response rating, Goosegrass","goosegrass; Preemergence, 31 g ai/ha",100
same,"Crabgrass, Large plant response rating","large crabgrass; 62 g ai/ha, Preemergence",95
same,"Crabgrass, Large plant response rating","large crabgrass; 125 g ai/ha, preemergence",100
same,"Plant response rating, Crabgrass, Large","large crabgrass; Preemergence, 16 g ai/ha",15
same,"Plant response rating, Crabgrass, Large","large crabgrass; Preemergence, 31 g ai/ha",95
same,Prickly Sida plant response rating,"prickly sida; 62 g ai/ha, Preemergence",95
same,Prickly Sida plant response rating,"prickly sida; 125 g ai/ha, preemergence",100
same,"Plant response rating, Prickly Sida","prickly sida; Preemergence, 16 g ai/ha",40
same,"Plant response rating, Prickly Sida","prickly sida; Preemergence, 31 g ai/ha",95
same,Ragweed plant response rating,"common ragweed; 62 g ai/ha, Preemergence",70
same,Ragweed plant response rating,"common ragweed; 125 g ai/ha, preemergence",80
same,"Plant response rating, Ragweed","common ragweed; Preemergence, 16 g ai/ha",0
same,"Plant response rating, Ragweed","common ragweed; Preemergence, 31 g ai/ha",40
Cc1cc([S+]([O-])Cc2c(C(F)(F)F)nn(C)c2OCC(F)(F)F)[n+]([O-])cc1Cl (stereo not drawn) [Compound 70],"Plant response rating, Johnsongrass","johnsongrass; 16 g ai/ha, preemergence",90
same,Johnsongrass plant response rating,"johnsongrass; 62 g ai/ha, Preemergence",100
same,Johnsongrass plant response rating,"johnsongrass; 125 g ai/ha, preemergence",100
same,"Plant response rating, Johnsongrass","johnsongrass; Preemergence, 31 g ai/ha",90
same,"Plant response rating, Crabgrass, Naked","naked crabgrass; 16 g ai/ha, preemergence",90
same,"Crabgrass, Naked plant response rating","naked crabgrass; 62 g ai/ha, Preemergence",100
same,"Crabgrass, Naked plant response rating","naked crabgrass; 125 g ai/ha, preemergence",100
same,"Plant response rating, Crabgrass, Naked","naked crabgrass; Preemergence, 31 g ai/ha",90
same,"Plant response rating, Kochia","kochia; 16 g ai/ha, preemergence",95
same,Kochia plant response rating,"kochia; 62 g ai/ha, Preemergence",100
same,Kochia plant response rating,"kochia; 125 g ai/ha, preemergence",100
same,"Plant response rating, Kochia","kochia; Preemergence, 31 g ai/ha",95
same,"Plant response rating, Bermudagrass","bermudagrass; 16 g ai/ha, preemergence",40
same,Bermudagrass plant response rating,"bermudagrass; 62 g ai/ha, Preemergence",98
same,Bermudagrass plant response rating,"bermudagrass; 125 g ai/ha, preemergence",100
same,"Plant response rating, Bermudagrass","bermudagrass; Preemergence, 31 g ai/ha",80
same,"Ryegrass, Italian plant response rating","Italian ryegrass; 125 g ai/ha, preemergence",100
same,"Plant response rating, Ryegrass, Italian","Italian ryegrass; Preemergence, 62 g ai/ha",100
same,"Plant response rating, Ryegrass, Italian","Italian ryegrass; Preemergence, 31 g ai/ha",75
same,"Plant response rating, Sandbur","southern sandbur; 16 g ai/ha, preemergence",65
same,Sandbur plant response rating,"southern sandbur; 125 g ai/ha, preemergence",100
same,"Plant response rating, Sandbur","southern sandbur; Preemergence, 62 g ai/ha",75
same,"Plant response rating, Purple Nutsedge","purple nutsedge; 16 g ai/ha, preemergence",0
same,Purple Nutsedge plant response rating,"purple nutsedge; 62 g ai/ha, Preemergence",20
same,Purple Nutsedge plant response rating,"purple nutsedge; 125 g ai/ha, preemergence",40
same,"Plant response rating, Purple Nutsedge","purple nutsedge; Preemergence, 31 g ai/ha",15
same,Purslane plant response rating,"common purslane; 62 g ai/ha, Preemergence",75
same,Purslane plant response rating,"common purslane; 125 g ai/ha, preemergence",75
same,"Plant response rating, Purslane","common purslane; Preemergence, 31 g ai/ha",35
same,Surinam Grass plant response rating,"Surinam grass; 125 g ai/ha, preemergence",100
same,"Plant response rating, Surinam Grass","Surinam grass; Preemergence, 62 g ai/ha",98
same,"Plant response rating, Surinam Grass","Surinam grass; Preemergence, 31 g ai/ha",40
same,"Plant response rating, Quackgrass","quackgrass; 16 g ai/ha, preemergence",75
same,Quackgrass plant response rating,"quackgrass; 62 g ai/ha, Preemergence",95
same,Quackgrass plant response rating,"quackgrass; 125 g ai/ha, preemergence",100
same,"Plant response rating, Quackgrass","quackgrass; Preemergence, 31 g ai/ha",75
same,"Plant response rating, Guineagrass","guineagrass; 16 g ai/ha, preemergence",100
same,Guineagrass plant response rating,"guineagrass; 62 g ai/ha, Preemergence",100
same,Guineagrass plant response rating,"guineagrass; 125 g ai/ha, preemergence",100
same,"Plant response rating, Guineagrass","guineagrass; Preemergence, 31 g ai/ha",100
same,"Plant response rating, Goosegrass","goosegrass; 16 g ai/ha, preemergence",60
same,Goosegrass plant response rating,"goosegrass; 62 g ai/ha, Preemergence",80
same,Goosegrass plant response rating,"goosegrass; 125 g ai/ha, preemergence",100
same,"Plant response rating, Goosegrass","goosegrass; Preemergence, 31 g ai/ha",80
same,"Plant response rating, Crabgrass, Large","large crabgrass; 16 g ai/ha, preemergence",35
same,"Crabgrass, Large plant response rating","large crabgrass; 62 g ai/ha, Preemergence",70
same,"Crabgrass, Large plant response rating","large crabgrass; 125 g ai/ha, preemergence",98
same,"Plant response rating, Crabgrass, Large","large crabgrass; Preemergence, 31 g ai/ha",50
same,"Plant response rating, Prickly Sida","prickly sida; 16 g ai/ha, preemergence",60
same,Prickly Sida plant response rating,"prickly sida; 62 g ai/ha, Preemergence",90
same,Prickly Sida plant response rating,"prickly sida; 125 g ai/ha, preemergence",90
same,"Plant response rating, Prickly Sida","prickly sida; Preemergence, 31 g ai/ha",80
same,Groundsel plant response rating,"common groundsel; 62 g ai/ha, Preemergence",98
same,Groundsel plant response rating,"common groundsel; 125 g ai/ha, preemergence",100
same,"Plant response rating, Groundsel","common groundsel; Preemergence, 31 g ai/ha",98
same,"Plant response rating, Ragweed","common ragweed; 16 g ai/ha, preemergence",60
same,"Plant response rating, Ragweed","common ragweed; Preemergence, 62 g ai/ha",80
same,"Plant response rating, Ragweed","common ragweed; Preemergence, 31 g ai/ha",60
